One experiment deals with T1, human renin (Homo sapiens, UniProt P00797).
T1 construct: purchased National Institute for Biological Standards, London
T1 sequence (P00797 67-406): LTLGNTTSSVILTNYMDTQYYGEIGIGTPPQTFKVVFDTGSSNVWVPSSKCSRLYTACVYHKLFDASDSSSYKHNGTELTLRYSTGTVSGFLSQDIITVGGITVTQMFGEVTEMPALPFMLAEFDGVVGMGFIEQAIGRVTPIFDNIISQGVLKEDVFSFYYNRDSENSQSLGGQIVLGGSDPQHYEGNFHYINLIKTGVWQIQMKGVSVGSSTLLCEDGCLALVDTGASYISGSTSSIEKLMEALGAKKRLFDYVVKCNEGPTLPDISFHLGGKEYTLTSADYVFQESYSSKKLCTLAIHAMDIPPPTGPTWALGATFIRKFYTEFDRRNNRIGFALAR
Nature of the experiment: Human renin inhibition in vitro. It is filed as biochemical. The method, then: Compounds of Formula I were evaluated as inhibitors of human renin in an in vitro assay, as follows: This human renin inhibition test has been previously described in detail [Papaioannou et al., Clinical and Experimental Hypertension, A7(9), 1243-1257 (1985)]. Human renin was obtained from the National Institute for Biological Standards, London. An incubation mixture was prepared containing the following components: in a total volume of 0.25 mL: 100 mM Tris-acetate buffer at pH 7.4, 25×10^−6 Goldblatt units of renin, 0.05 mL of plasma from human volunteers taking oral contraceptives, 6.0 mM Na-EDTA, 2.4 mM phenylmethyl sulfonyl fluoride, 1.5 mM 8-hydroxyquinoline, 0.4 mg/mL bovine serum albumin (BSA), and 0.024 mg/mL neomycin sulfate. This mixture was incubated for two hours at 37° C. in the presence or absence of renin inhibitors. The produced angiotensin I was determined by radioimmunoassay (New England Nuclear kit). Test compounds to be assayed were dissolved in DMSO and diluted with 100 mM Tris-acetate buffer at pH 7.4 containing 0.5% BSA to the appropriate concentration. The final concentration of organic solvent in the reaction mixture was less than 1%. Control incubations at 37° C. were used to correct for effects of organic solvent on renin activity.

The subject of experiment [1] is Plasma Renin Activity (PRA). Nature of the experiment: Marmoset plasma renin activity (PRA) reduction on oral administration. Format: in vivo, Marmoset monkeys (Callithrix jacchus). To be noted: IG; for inhibition at 0.1 mg/kg / inhibition at 1 mg/kg: Primates, po. As to the method:
The oral activity of renin inhibitor compounds was determined in vivo in Marmoset monkeys using the following procedure. Common Marmoset monkeys (Callithrix jacchus, Charles River, both sexes, body weight 300-400 g) were placed on a modified high-protein low-sodium diet (Purina, St. Louis, Mo.) for 1 week. About 24 hours prior to the administration of test compound, Lasix (5 mg/kg, im) was given. On the day of the test, the animal was anesthetized with isoflurane, body weight recorded, and a baseline blood sample taken. Then, test compound was given intragastrically and blood samples were taken in K-EDTA for plasma renin activity at appropriate time intervals. The PRA was determined by using the protocol outlined below. Results are expressed in terms of PRA at various time intervals both before and after compound administrations (“Pre” means pretreatment levels before compound administrations). Also included is percent inhibition (% INH from pretreatment levels).
I. Angiotensin I Generation
25 ml of the above reaction mixtures, in duplicate, were incubated at 37° C. or 0° C. for 2 hours.
II. Determination of Angiotensin I Concentrations
Angiotensin I (AI) concentrations were determined by radioimmunoassays with a commercial kit from NEN Co.
III. Calculation of Plasma Renin Activity
PRA (ng AI/ml/hr)=(AI at 37°−AI at 0°)/2 hr.

Setting [2] is: 0.1 MPK, 60 min, individual monkeys.
[3] abbreviates: 0.1 MPK, 60 min from dosing, individual monkeys.
Where [4] appears, read: 0.1 MPK, 120 min, individual monkeys.
Setting [5] is: 0.1 MPK, 120 min from dosing, individual monkeys.
Where [6] appears, read: 0.1 MPK, 240 min, individual monkeys.
The mark [7] stands for this setting: 0.1 MPK, 240 min from dosing, individual monkeys.
The mark [8] stands for this setting: 0.1 MPK, Pre (pretreatment level), individual monkeys.
Setting [9] is: 0.1 MPK, 60 min, individual monkeys, read-out: % INH (from pretreatment PRA).
[10] abbreviates: 0.1 MPK, 240 min, individual monkeys, read-out: % INH (from pretreatment PRA).
The mark [11] stands for this setting: 1 h, 0.1 MPK, 60 min, mean of monkeys A-C, read-out: MEAN % INH.
The mark [12] stands for this setting: 2 h, 0.1 MPK, 120 min, mean of monkeys A-C, read-out: MEAN % INH.
The mark [13] stands for this setting: 4 h, 0.1 MPK, 240 min, mean of monkeys A-C, read-out: MEAN % INH.

Structures are written as SMILES. Where “and” joins values, the source holds several entries; their conditions need not be identical. Equal entries are not always repeated. Where two headings read alike, the source gives them in different places.

One may read the IC50 as the concentration at which inhibition is half-maximal.

As to `C#CC[C@H](NC(=O)[C@@H](CC(=O)N(C)CCN(CC)CC)Cc1ccccc1)C(=O)N[C@@H](CC1CCCCC1)[C@@H](O)[C@@H](O)CC(C)C` [Example 4], the midpoint of inhibition against human renin, the IC50, lay at 1 nM.

The compound `C#CC[C@H](NC(=O)C(Cc1ccccc1)OC(=O)N(C)CCN(C)C)C(=O)NC(CC1CCCCC1)[C@@H](O)C(O)CC(C)C` (relative stereo) [Example 2, [1R*-[[[1R*-[[[1S,1R*-(Cyclohexylmethyl)-2S*,3R*-dihydroxy-5-methylhexyl]amino]carbonyl]-3-butynyl]amino]carbonyl]-2-phenylethyl)[2-(dimethylamino)ethyl]methylcarbamate] showed an IC50 against human renin of 4 nM. The “% INH (from pretreatment PRA)” value is 71.5% and 81.2% in experiment [1] (setting [2]); 86.4% and 64.8% and 78.7% in experiment [1] (setting [4]); 57.2% and 58.2% in experiment [1] (setting [6]). Further, the PRA in experiment [1] (setting [3]) is 3.9 ngAI/ml/hr and 33.9 ngAI/ml/hr and 12.7 ngAI/ml/hr; in experiment [1] (setting [5]), 5.7 ngAI/ml/hr and 41.8 ngAI/ml/hr and 14.4 ngAI/ml/hr; in experiment [1] (setting [7]), 28.5 ngAI/ml/hr and 18.1 ngAI/ml/hr and 49.7 ngAI/ml/hr; in experiment [1] (setting [8]), 42.2 ngAI/ml/hr and 118.8 ngAI/ml/hr and 67.5 ngAI/ml/hr. Besides, the inhibition at 0.1 mg/kg was 90.7% in experiment [1] (setting [9]); 57.7% in experiment [1] (setting [10]); 81.1 ± 6% in experiment [1] (setting [11]); 76.6 ± 6% in experiment [1] (setting [12]); 57.7% in experiment [1] (setting [13]).

On to `C#CCC(NC(=O)C(Cc1ccccc1)OC(=O)N(C)CCN(C)C)C(=O)NC(CC1CCCCC1)[C@@H](O)C(O)CC(C)C` (stereo in doubt) [Example 3, [1R*-[[[1-[[[1S,1R*-(Cyclohexylmethyl)-2S*,3R*-dihydroxy-5-methylhexyl]amino]carbonyl]-3-butynyl]amino]carbonyl]-2-phenylethyl[]2-(dimethylamino)ethyl]methylcarbamate], for which half-maximal inhibition against human renin (IC50) was put at 3 nM. Also, the “% INH (from pretreatment PRA)” value is 60.7% and 66.7% in experiment [1] (setting [2]); 46.9% and 60.3% in experiment [1] (setting [4]); 63.9% and 48% in experiment [1] (setting [6]). The PRA in experiment [1] (setting [3]) was 42.1 ngAI/ml/hr and 29.8 ngAI/ml/hr and 27.8 ngAI/ml/hr; in experiment [1] (setting [5]), 47.1 ngAI/ml/hr and 40.3 ngAI/ml/hr and 33.2 ngAI/ml/hr; in experiment [1] (setting [7]) it was 36.1 ngAI/ml/hr and 38.1 ngAI/ml/hr and 39.5 ngAI/ml/hr; in experiment [1] (setting [8]), 105.5 ngAI/ml/hr and 76 ngAI/ml/hr and 83.7 ngAI/ml/hr; in experiment [1] (1.0 MPK, 60 min from dosing, individual monkeys) it was 0 ngAI/ml/hr; in experiment [1] (1.0 MPK, 120 min from dosing, individual monkeys), 0 ngAI/ml/hr. Besides, the PRA in experiment [1] (1.0 MPK, 240 min from dosing, individual monkeys) is 0 ngAI/ml/hr; in experiment [1] (1.0 MPK, Pre (pretreatment level), individual monkeys) it was 70.5 ngAI/ml/hr and 185.4 ngAI/ml/hr and 76.1 ngAI/ml/hr. The inhibition at 0.1 mg/kg in experiment [1] (setting [9]) was 60.1%; in experiment [1] (0.1 MPK, 120 min, individual monkeys, read-out: % INH (from pretreatment PRA)), 55.3%; in experiment [1] (setting [10]) it was 56.8%; in experiment [1] (setting [11]) it was 62.5 ± 2%; in experiment [1] (setting [12]), 54.2 ± 4%; in experiment [1] (setting [13]), 56.2 ± 5%. Besides, the inhibition at 1 mg/kg came out at 100% in experiment [1] (1.0 MPK, 60 min, individual monkeys, read-out: % INH (from pretreatment PRA)); 100% in experiment [1] (1.0 MPK, 120 min, individual monkeys, read-out: % INH (from pretreatment PRA)); 100% in experiment [1] (1.0 MPK, 240 min, individual monkeys, read-out: % INH (from pretreatment PRA)); 100% in experiment [1] (1.0 MPK, printed on the Pre line, read-out: % INH); 100% in experiment [1] (1 h, 1.0 MPK, 60 min, mean of monkeys, read-out: MEAN % INH); 100% in experiment [1] (2 h, 1.0 MPK, 120 min, mean of monkeys, read-out: MEAN % INH). Moreover, in experiment [1] (4 h, 1.0 MPK, 240 min, mean of monkeys, read-out: MEAN % INH), the inhibition at 1 mg/kg came to 100%.

Values taken from patent US6515025B2, “Use of ethynyl alanine amino diol compounds to inhibit enzymatic conversion of angiotensinogen to angiotensin I” (Pharmacia Corporation, priority 1991, dated 2003).
